# Experimental data taken from PubChem BioAssay AID2060512 (Molecular Pharmacology Branch, DTP, NCI, 2025).
# System: 186277-243-T-J2-PDC complex spheroid viability
# Test: Anticancer human tumor 186277-243-T-J2-PDC patient-derived colon adenocarcinoma cell line growth inhibition [GQUAD]
# Settings: for IC50: curve of first compound; for viability, T/C: stronger effect = lower value
# In short: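 Multi-cell-type spheroids of tumor cells with HUVEC and mesenchymal stem cells, treated with drug combinations. Concentrations descend in half-log steps from near clinical Cmax, or from 10 microM where Cmax is unknown; viability read-out.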
# [1] = second compound 0.0316 µM, first compound 0.0316 µM
# [2] = second compound 0.0316 µM, first compound 0.1 µM
# [3] = second compound 0.0316 µM, first compound 0.316 µM
# [4] = second compound 0.0316 µM, first compound 1 µM
# [5] = second compound 0.0316 µM, first compound 3.16 µM
# [6] = second compound 0.0316 µM, first compound 10 µM
# [7] = second compound 0.1 µM, first compound 0.0316 µM
# [8] = second compound 0.1 µM, first compound 0.1 µM
# [9] = second compound 0.1 µM, first compound 0.316 µM
# [10] = second compound 0.1 µM, first compound 1 µM
# [11] = second compound 0.1 µM, first compound 3.16 µM
# [12] = second compound 0.1 µM, first compound 10 µM
# [13] = second compound 0.316 µM, first compound 0.0316 µM
# [14] = second compound 0.316 µM, first compound 0.1 µM
# [15] = second compound 0.316 µM, first compound 0.316 µM
# [16] = second compound 0.316 µM, first compound 1 µM
# [17] = second compound 0.316 µM, first compound 3.16 µM
# [18] = second compound 0.316 µM, first compound 10 µM
# [19] = second compound 1 µM, first compound 0.0316 µM
# [20] = second compound 1 µM, first compound 0.1 µM
# [21] = second compound 1 µM, first compound 0.316 µM
# [22] = second compound 1 µM, first compound 1 µM
# [23] = second compound 1 µM, first compound 3.16 µM
# [24] = second compound 1 µM, first compound 10 µM
# [25] = second compound 3.16 µM, first compound 0.0316 µM
# [26] = second compound 3.16 µM, first compound 0.1 µM
# [27] = second compound 3.16 µM, first compound 0.316 µM
# [28] = second compound 3.16 µM, first compound 1 µM
# [29] = second compound 3.16 µM, first compound 3.16 µM
# [30] = second compound 3.16 µM, first compound 10 µM
# [31] = second compound 10 µM, first compound 0.0316 µM
# [32] = second compound 10 µM, first compound 0.1 µM
# [33] = second compound 10 µM, first compound 0.316 µM
# [34] = second compound 10 µM, first compound 1 µM
# [35] = second compound 10 µM, first compound 3.16 µM
# [36] = second compound 10 µM, first compound 10 µM
# 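Also: spheroids exposed to drugs for 7 days.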
# 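For viability, T/C in this document: 100% = DMSO vehicle control viability.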
smiles,measurement,setting,value
C=CC(=O)N1CCN(c2nc(=O)n(-c3c(C)ccnc3C(C)C)c3nc(-c4c(O)cccc4F)c(F)cc23)C(C)C1 (stereo not drawn) + CN(C)c1ccc(Nc2c3ccc(NC(=O)CCN4CCCC4)cc3nc3cc(NC(=O)CCN4CCCC4)ccc23)cc1,IC50,second compound 0.0316 µM,> 10 µM
same,IC50,second compound 0.1 µM,> 10 µM
same,IC50,second compound 0.316 µM,> 10 µM
same,IC50,second compound 1 µM,> 10 µM
same,IC50,second compound 3.16 µM,> 10 µM
same,IC50,second compound 10 µM,> 10 µM
same,"viability, T/C",[1],105%
same,"viability, T/C",[2],85.5%
same,"viability, T/C",[3],90.1%
same,"viability, T/C",[4],81.7%
same,"viability, T/C",[5],104%
same,"viability, T/C",[6],96.6%
same,"viability, T/C",[7],111%
same,"viability, T/C",[8],96.1%
same,"viability, T/C",[9],101%
same,"viability, T/C",[10],71.9%
same,"viability, T/C",[11],111%
same,"viability, T/C",[12],88.3%
same,"viability, T/C",[13],104%
same,"viability, T/C",[14],94.6%
same,"viability, T/C",[15],87.3%
same,"viability, T/C",[16],90.5%
same,"viability, T/C",[17],92.6%
same,"viability, T/C",[18],95.2%
same,"viability, T/C",[19],93.9%
same,"viability, T/C",[20],89.8%
same,"viability, T/C",[21],88.4%
same,"viability, T/C",[22],101%
same,"viability, T/C",[23],105%
same,"viability, T/C",[24],97.3%
same,"viability, T/C",[25],95.3%
same,"viability, T/C",[26],87.2%
same,"viability, T/C",[27],97.6%
same,"viability, T/C",[28],89.8%
same,"viability, T/C",[29],101%
same,"viability, T/C",[30],95.3%
same,"viability, T/C",[31],91.7%
same,"viability, T/C",[32],80.2%
same,"viability, T/C",[33],98.4%
same,"viability, T/C",[34],96%
same,"viability, T/C",[35],111%
same,"viability, T/C",[36],88.1%
CCc1c2c(nc3ccc(O)cc13)-c1cc3c(c(=O)n1C2)COC(=O)[C@]3(O)CC + CN(C)c1ccc(Nc2c3ccc(NC(=O)CCN4CCCC4)cc3nc3cc(NC(=O)CCN4CCCC4)ccc23)cc1,IC50,second compound 0.0316 µM,0.0059 µM
same,IC50,second compound 0.1 µM,0.00626 µM
same,IC50,second compound 0.316 µM,0.00631 µM
same,IC50,second compound 1 µM,0.00578 µM
same,IC50,second compound 3.16 µM,0.00775 µM
same,IC50,second compound 10 µM,0.0075 µM
same,"viability, T/C","second compound 0.0316 µM, first compound 0.000999 µM",97.1%
same,"viability, T/C","second compound 0.0316 µM, first compound 0.00316 µM",62.1%
same,"viability, T/C","second compound 0.0316 µM, first compound 0.00999 µM",40.6%
same,"viability, T/C",[1],23.8%
same,"viability, T/C","second compound 0.0316 µM, first compound 0.0999 µM",17.1%
same,"viability, T/C",[3],13.1%
same,"viability, T/C","second compound 0.1 µM, first compound 0.000999 µM",99.8%
same,"viability, T/C","second compound 0.1 µM, first compound 0.00316 µM",60.1%
same,"viability, T/C","second compound 0.1 µM, first compound 0.00999 µM",44.3%
same,"viability, T/C",[7],25.8%
same,"viability, T/C","second compound 0.1 µM, first compound 0.0999 µM",15.8%
same,"viability, T/C",[9],11.6%
same,"viability, T/C","second compound 0.316 µM, first compound 0.000999 µM",107%
same,"viability, T/C","second compound 0.316 µM, first compound 0.00316 µM",69%
same,"viability, T/C","second compound 0.316 µM, first compound 0.00999 µM",36%
same,"viability, T/C",[13],23.7%
same,"viability, T/C","second compound 0.316 µM, first compound 0.0999 µM",15.7%
same,"viability, T/C",[15],11.1%
same,"viability, T/C","second compound 1 µM, first compound 0.000999 µM",82.9%
same,"viability, T/C","second compound 1 µM, first compound 0.00316 µM",59.7%
same,"viability, T/C","second compound 1 µM, first compound 0.00999 µM",41.6%
same,"viability, T/C",[19],25.4%
same,"viability, T/C","second compound 1 µM, first compound 0.0999 µM",15.8%
same,"viability, T/C",[21],10.4%
same,"viability, T/C","second compound 3.16 µM, first compound 0.000999 µM",92.8%
same,"viability, T/C","second compound 3.16 µM, first compound 0.00316 µM",63.4%
same,"viability, T/C","second compound 3.16 µM, first compound 0.00999 µM",49.4%
same,"viability, T/C",[25],27.1%
same,"viability, T/C","second compound 3.16 µM, first compound 0.0999 µM",16.3%
same,"viability, T/C",[27],8.68%
same,"viability, T/C","second compound 10 µM, first compound 0.000999 µM",83%
same,"viability, T/C","second compound 10 µM, first compound 0.00316 µM",63.1%
same,"viability, T/C","second compound 10 µM, first compound 0.00999 µM",45.5%
same,"viability, T/C",[31],31.4%
same,"viability, T/C","second compound 10 µM, first compound 0.0999 µM",16.4%
same,"viability, T/C",[33],9.38%
Cc1cccc(N(C)C(=O)C2C(O)CCN2c2nc(C)cc(C(F)(F)F)c2C#N)c1 (stereo not drawn) + CN(C)c1ccc(Nc2c3ccc(NC(=O)CCN4CCCC4)cc3nc3cc(NC(=O)CCN4CCCC4)ccc23)cc1,IC50,second compound 0.0316 µM,> 10 µM
same,IC50,second compound 0.1 µM,> 10 µM
same,IC50,second compound 0.316 µM,> 10 µM
same,IC50,second compound 1 µM,> 10 µM
same,IC50,second compound 3.16 µM,> 10 µM
same,IC50,second compound 10 µM,> 10 µM
same,"viability, T/C",[1],88.8%
same,"viability, T/C",[2],99.5%
same,"viability, T/C",[3],115%
same,"viability, T/C",[4],109%
same,"viability, T/C",[5],105%
same,"viability, T/C",[6],100%
same,"viability, T/C",[7],94.1%
same,"viability, T/C",[8],105%
same,"viability, T/C",[9],94.9%
same,"viability, T/C",[10],91.8%
same,"viability, T/C",[11],108%
same,"viability, T/C",[12],88.7%
same,"viability, T/C",[13],81%
same,"viability, T/C",[14],107%
same,"viability, T/C",[15],98.9%
same,"viability, T/C",[16],97.6%
same,"viability, T/C",[17],102%
same,"viability, T/C",[18],104%
same,"viability, T/C",[19],97.1%
same,"viability, T/C",[20],93.2%
same,"viability, T/C",[21],98.9%
same,"viability, T/C",[22],101%
same,"viability, T/C",[23],102%
same,"viability, T/C",[24],114%
same,"viability, T/C",[25],86.4%
same,"viability, T/C",[26],91.7%
same,"viability, T/C",[27],106%
same,"viability, T/C",[28],118%
same,"viability, T/C",[29],83%
same,"viability, T/C",[30],110%
same,"viability, T/C",[31],88.6%
same,"viability, T/C",[32],104%
same,"viability, T/C",[33],93.7%
same,"viability, T/C",[34],120%
same,"viability, T/C",[35],98.2%
same,"viability, T/C",[36],75.6%
O=C(c1cc(Cc2n[nH]c(=O)c3ccccc23)ccc1F)N1CCN(C(=O)C2CC2)CC1 + CN(C)c1ccc(Nc2c3ccc(NC(=O)CCN4CCCC4)cc3nc3cc(NC(=O)CCN4CCCC4)ccc23)cc1,IC50,second compound 0.0316 µM,> 10 µM
same,IC50,second compound 0.1 µM,> 10 µM
same,IC50,second compound 0.316 µM,> 10 µM
same,IC50,second compound 1 µM,> 10 µM
same,IC50,second compound 3.16 µM,> 10 µM
same,IC50,second compound 10 µM,> 10 µM
same,"viability, T/C",[1],116%
same,"viability, T/C",[2],122%
same,"viability, T/C",[3],115%
same,"viability, T/C",[4],93.5%
same,"viability, T/C",[5],81.8%
same,"viability, T/C",[6],70.2%
same,"viability, T/C",[7],117%
same,"viability, T/C",[8],118%
same,"viability, T/C",[9],115%
same,"viability, T/C",[10],99%
same,"viability, T/C",[11],103%
same,"viability, T/C",[12],53.5%
same,"viability, T/C",[13],97.7%
same,"viability, T/C",[14],111%
same,"viability, T/C",[15],102%
same,"viability, T/C",[16],95.1%
same,"viability, T/C",[17],111%
same,"viability, T/C",[18],63.4%
same,"viability, T/C",[19],98.2%
same,"viability, T/C",[20],100%
same,"viability, T/C",[21],105%
same,"viability, T/C",[22],110%
same,"viability, T/C",[23],89.9%
same,"viability, T/C",[24],75.9%
same,"viability, T/C",[25],90.4%
same,"viability, T/C",[26],109%
same,"viability, T/C",[27],95.3%
same,"viability, T/C",[28],100%
same,"viability, T/C",[29],78.7%
same,"viability, T/C",[30],64.5%
same,"viability, T/C",[31],105%
same,"viability, T/C",[32],116%
same,"viability, T/C",[33],120%
same,"viability, T/C",[34],111%
same,"viability, T/C",[35],95.9%
same,"viability, T/C",[36],54.9%
